In the assay the target is T1, Full length human recombinant HDAC8 protein (Homo sapiens, UniProt Q9BY41).
T1 construct: Full length human recombinant HDAC8 protein was expressed in baculoviral system; made in house
T1 sequence (Q9BY41 1-377): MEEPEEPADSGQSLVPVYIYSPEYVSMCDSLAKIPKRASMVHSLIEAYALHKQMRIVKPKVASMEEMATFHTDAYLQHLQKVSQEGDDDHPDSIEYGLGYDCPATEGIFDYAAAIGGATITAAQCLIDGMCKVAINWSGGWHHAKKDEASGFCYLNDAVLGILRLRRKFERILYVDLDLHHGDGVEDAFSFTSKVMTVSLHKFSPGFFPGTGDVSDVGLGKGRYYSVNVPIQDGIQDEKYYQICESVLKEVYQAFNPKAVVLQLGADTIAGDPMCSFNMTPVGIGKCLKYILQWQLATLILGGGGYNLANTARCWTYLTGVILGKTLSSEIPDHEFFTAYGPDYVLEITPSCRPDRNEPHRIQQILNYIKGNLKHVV
The assay can be described thus: In vitro histone deacetylase assay: enzymatic HDAC8 electrophoretic mobility shift assay. Type of assay: biochemical. The protocol:
The enzymatic HDAC8 assay was performed using electrophoretic mobility shift assay. Full length human recombinant HDAC8 protein was expressed in baculoviral system and purified by affinity chromatography. The enzymatic reactions were assembled in 384 well plates in a total volume of 25 μL in a reaction buffer composing: 100 mM HEPES, pH7.5, 25 mM KCl, 0.1% bovine serum albumin, 0.01% Triton X-100, 1% DMSO (from compounds) 2 μM of the fluorescently labeled peptide substrate and enzyme. The enzyme was added at a final concentration of 1 nM. The peptide substrate RHKK(Ac)—NH2 was used. The compounds were tested at 12 concentrations spaced by 3× dilution intervals. Negative control samples (0%-inhibition in the absence of inhibitor) and positive control samples (100%-inhibition) were assembled in replicates of four in each assay plate. The reactions were incubated at 25° C. and quenched by the addition of 45 μL of termination buffer (100 mM HEPES, pH 7.5, 0.01% Triton X-100, 0.05% SDS).
The terminated assay plates were analyzed on LabChip® 3000 microfluidic electrophoresis instrument (Perkin Elmer/Caliper Life Sciences). The fluorescence intensity of the electrophoretically separated de-acetylated product and substrate peptide was measured. Activity in each sample was determined as the product to sum ratio (PSR): P/(S+P), where P is the peak height of the product peptide and S is the peak height of the substrate peptide. Percent inhibition (Pinh) is determined using the following equation: Pinh=(PSR0%−PSRinh)/(PSR0%−PSR100%)*100, where PSRinh is the product sum ratio in the presence of inhibitor, PSR0% is the average product sum ration in the absence of inhibitor and PSR100% is the average product sum ratio in 100%-inhibition control samples. The IC50 values of inhibitors were determined by fitting the %-inhibition curves with 4 parameter dose-response model using XLfit 4 software.

Setting [1] is: electrophoretic mobility shift assay, enzyme 1 nM, 2 μM fluorescently labeled peptide substrate RHKK(Ac)-NH2, 25° C., 12 concentrations, read-out: HDAC8 IC50.

Structures are written as SMILES. Where two headings read alike, the source gives them in different places. Bounds are passed on as bounds.

As a reminder, the IC50 is the concentration that inhibits the measured activity by half.

On to `O=C(NO)c1ccc2c(c1)N(Cc1ccccc1)C(=O)CO2` [Compound I-32, 4-benzyl-N-hydroxy-3-oxo-3,4-dihydro-2H-benzo[b][1,4]oxazine-6-carboxamide], for which, under setting [1], the IC50 lay within 25 to 100 nM. On to `O=C(NO)c1ccc2c(c1)N(CCc1ccc(Cl)cc1)C(=O)CO2` [Compound I-34, 4-(4-chlorophenethyl)-N-hydroxy-3-oxo-3,4-dihydro-2H-benzo[b][1,4]oxazine-6-carboxamide], for which the IC50 under setting [1] was 25 to 100 nM.

Take `O=C(NO)c1ccc2c(c1)N(Cc1ccc(C(F)(F)F)cc1)C(=O)CO2` [Compound I-35, N-hydroxy-3-oxo-4-(4-(trifluoromethyl)benzyl)-3,4-dihydro-2H-benzo[b][1,4]oxazine-6-carboxamide]: the IC50 under setting [1] was less than 25 nM.

In the case of `CCCN1C(=O)COc2ccc(C(=O)NO)cc21` [Compound I-39, N-hydroxy-3-oxo-4-propyl-3,4-dihydro-2H-benzo[b][1,4]oxazine-6-carboxamide], the IC50 under setting [1] lay within 100 to 1000 nM.

Regarding `C#CCN1C(=O)COc2ccc(C(=O)NO)cc21` [Compound I-40, N-hydroxy-3-oxo-4-(prop-2-yn-1-yl)-3,4-dihydro-2H-benzo[b][1,4]oxazine-6-carboxamide], the IC50 under setting [1] fell in the range of 100 to 1000 nM. As to `C=CCN1C(=O)COc2ccc(C(=O)NO)cc21` [Compound I-41, 4-allyl-N-hydroxy-3-oxo-3,4-dihydro-2H-benzo[b][1,4]oxazine-6-carboxamide], the IC50 under setting [1] lay within 100 to 1000 nM. For the molecule `O=C(NO)c1ccc2c(c1)N(C1CCCC1)C(=O)CO2` [Compound I-42, 4-cyclopentyl-N-hydroxy-3-oxo-3,4-dihydro-2H-benzo[b][1,4]oxazine-6-carboxamide], the 50% inhibitory concentration (IC50) under setting [1] lay within 100 to 1000 nM. Turning to `COCCN1C(=O)COc2ccc(C(=O)NO)cc21` [Compound I-43, N-hydroxy-4-(2-methoxyethyl)-3-oxo-3,4-dihydro-2H-benzo[b][1,4]oxazine-6-carboxamide], the IC50 under setting [1] was in the range of 100 to 1000 nM. As for `CC(C)=CCCN1C(=O)COc2ccc(C(=O)NO)cc21` [Compound I-44, N-hydroxy-4-(4-methylpent-3-en-1-yl)-3-oxo-3,4-dihydro-2H-benzo[b][1,4]oxazine-6-carboxamide], under setting [1], the IC50 was in the range of 25 to 100 nM.

`CCC(C)N1C(=O)COc2ccc(C(=O)NO)cc21` (stereo not shown) [Compound I-46, 4-(sec-butyl)-N-hydroxy-3-oxo-3,4-dihydro-2H-benzo[b][1,4]oxazine-6-carboxamide]: the IC50 under setting [1] was 100 to 1000 nM. Still for that read-out and setting: for `O=C(NO)c1ccc2c(c1)N(CC1CCOCC1)C(=O)CO2` [Compound I-48, N-hydroxy-3-oxo-4-((tetrahydro-2H-pyran-4-yl)methyl)-3,4-dihydro-2H-benzo[b][1,4]oxazine-6-carboxamide] the value was 100 to 1000 nM. With `O=C(NO)c1ccc2c(c1)N(CC1CCS(=O)(=O)CC1)C(=O)CO2` [Compound I-49, 4-((1,1-dioxidotetrahydro-2H-thiopyran-4-yl)methyl)-N-hydroxy-3-oxo-3,4-dihydro-2H-benzo[b][1,4]oxazine-6-carboxamide], the IC50 under setting [1] fell in the range of 100 to 1000 nM. Consider `CN(C(=O)CN1C(=O)COc2ccc(C(=O)NO)cc21)C1CC1` [Compound I-51, 4-(2-(cyclopropyl(methyl)amino)-2-oxoethyl)-N-hydroxy-3-oxo-3,4-dihydro-2H-benzo[b][1,4]oxazine-6-carboxamide], for which the IC50 was 100 to 1000 nM. For `O=C(NO)c1ccc2c(c1)N(CCN1CCCS1(=O)=O)C(=O)CO2` [Compound I-52, 4-(2-(1,1-dioxidoisothiazolidin-2-yl)ethyl)-N-hydroxy-3-oxo-3,4-dihydro-2H-benzo[b][1,4]oxazine-6-carboxamide], the IC50 under setting [1] was 100 to 1000 nM. Consider `O=C(NO)c1ccc2c(c1)N(CCOc1ccc(C(F)(F)F)cc1)C(=O)CO2` [Compound I-55, N-hydroxy-3-oxo-4-(2-(4-(trifluoromethyl)phenoxy)ethyl)-3,4-dihydro-2H-benzo[b][1,4]oxazine-6-carboxamide], for which the IC50 under setting [1] was in the range of 25 to 100 nM. Same read-out and setting: for `CN(C)S(=O)(=O)c1ccc(OCCN2C(=O)COc3ccc(C(=O)NO)cc32)cc1` [Compound I-56, 4-(2-(4-(N,N-dimethylsulfamoyl)phenoxy)ethyl)-N-hydroxy-3-oxo-3,4-dihydro-2H-benzo[b][1,4]oxazine-6-carboxamide] the value was 25 to 100 nM; for `CC(C)CN1C(=O)COc2ccc(C(=O)NO)cc21` [Compound I-57, N-hydroxy-4-isobutyl-3-oxo-3,4-dihydro-2H-benzo[b][1,4]oxazine-6-carboxamide], 100 to 1000 nM. `O=C(NO)c1ccc2c(c1)N(Cc1ccccn1)C(=O)CO2` [Compound I-61, N-hydroxy-3-oxo-4-(pyridin-2-ylmethyl)-3,4-dihydro-2H-benzo[b][1,4]oxazine-6-carboxamide]: the IC50 under setting [1] fell in the range of 100 to 1000 nM. On to `COc1ccccc1CN1C(=O)COc2ccc(C(=O)NO)cc21` [Compound I-63, N-hydroxy-4-(2-methoxybenzyl)-3-oxo-3,4-dihydro-2H-benzo[b][1,4]oxazine-6-carboxamide], for which the IC50 under setting [1] lay within 100 to 1000 nM. Take `O=C(NO)c1ccc2c(c1)N(Cc1ccccc1C(F)(F)F)C(=O)CO2` [Compound I-65, N-hydroxy-3-oxo-4-(2-(trifluoromethyl)benzyl)-3,4-dihydro-2H-benzo[b][1,4]oxazine-6-carboxamide]: the IC50 under setting [1] was 100 to 1000 nM. Regarding `O=C(NO)c1ccc2c(c1)N(Cc1ccccc1OC(F)(F)F)C(=O)CO2` [Compound I-66, N-hydroxy-3-oxo-4-(2-(trifluoromethoxy)benzyl)-3,4-dihydro-2H-benzo[b][1,4]oxazine-6-carboxamide], the IC50 under setting [1] was in the range of 100 to 1000 nM. On to `CC(c1ccccc1)N1C(=O)COc2ccc(C(=O)NO)cc21` (stereo not shown) [Compound I-67, N-hydroxy-3-oxo-4-(1-phenylethyl)-3,4-dihydro-2H-benzo[b][1,4]oxazine-6-carboxamide], for which the IC50 under setting [1] was 25 to 100 nM.

For `O=C(NO)c1ccc2c(c1)N(Cc1ccccc1F)C(=O)CO2` [Compound I-69, 4-(2-fluorobenzyl)-N-hydroxy-3-oxo-3,4-dihydro-2H-benzo[b][1,4]oxazine-6-carboxamide], the IC50 under setting [1] was less than 25 nM. With `CC(C)(C)c1ccc(CN2C(=O)COc3ccc(C(=O)NO)cc32)cc1` [Compound I-70, 4-(4-(tert-butyl)benzyl)-N-hydroxy-3-oxo-3,4-dihydro-2H-benzo[b][1,4]oxazine-6-carboxamide], under setting [1], the IC50 was less than 25 nM.

Consider `O=C(NO)c1ccc2c(c1)N(Cc1ccc(F)c(F)c1)C(=O)CO2` [Compound I-71, 4-(3,4-difluorobenzyl)-N-hydroxy-3-oxo-3,4-dihydro-2H-benzo[b][1,4]oxazine-6-carboxamide], for which, under setting [1], the IC50 is less than 25 nM. `Cc1ccc(C(F)(F)F)cc1CN1C(=O)COc2ccc(C(=O)NO)cc21` [Compound I-72, N-hydroxy-4-(2-methyl-5-(trifluoromethyl)benzyl)-3-oxo-3,4-dihydro-2H-benzo[b][1,4]oxazine-6-carboxamide]: the IC50 under setting [1] is less than 25 nM. For `O=C(NO)c1ccc2c(c1)N(Cc1cc(C(F)(F)F)ccc1F)C(=O)CO2` [Compound I-73, 4-(2-fluoro-5-(trifluoromethyl)benzyl)-N-hydroxy-3-oxo-3,4-dihydro-2H-benzo[b][1,4]oxazine-6-carboxamide], the IC50 under setting [1] is less than 25 nM. The same measure, in the same setting: for `O=C(NO)c1ccc2c(c1)N(Cc1cccc(-c3ccccc3)c1)C(=O)CO2` [Compound I-75, 4-([1,1′-biphenyl]-3-ylmethyl)-N-hydroxy-3-oxo-3,4-dihydro-2H-benzo[b][1,4]oxazine-6-carboxamide] the value was less than 25 nM. On to `CCCCCN1CCOc2ccc(C(=O)NO)cc21` [Compound I-78, N-hydroxy-4-pentyl-3,4-dihydro-2H-benzo[b][1,4]oxazine-6-carboxamide], for which the IC50 under setting [1] is 25 to 100 nM. On to `O=C(NO)c1ccc2c(c1)N(Cc1ccc(C(F)(F)F)cc1)CCS2(=O)=O` [Compound I-79, N-hydroxy-4-(4-(trifluoromethyl)benzyl)-3,4-dihydro-2H-benzo[b][1,4]thiazine-6-carboxamide 1,1-dioxide], for which the IC50 under setting [1] was less than 25 nM. Regarding `COc1ccc(CN2CCS(=O)(=O)c3cc(C(=O)NO)ccc32)cc1` [Compound I-80, N-hydroxy-4-(4-methoxybenzyl)-3,4-dihydro-2H-benzo[b][1,4]thiazine-7-carboxamide-1,1-dioxide], the IC50 under setting [1] lay within 100 to 1000 nM.
